According to patent publication US20170253607A1, “LONG-ACTING HIV PROTEASE INHIBITOR” (Shionogi & Co., Ltd., priority 2014, published 2017):

target: HIV-1 PR (Human immunodeficiency virus type 1 group M subtype B, UniProt P04585); experiment: HIV-protease inhibitory activity assay (FRET peptide substrate); format: biochemical; settings: Test Example 1
Summary of the method: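 Compounds were preincubated with HIV-1 PR (0.83 ng) at room temperature in pH 4.8 NaAc buffer (0.5 M NaCl, EDTA, DTT, Tween 20), then HiLyte Fluor 488/QXL 520 FRET peptide (2 μmol/L final) was added for 60 min. Fluorescence was read at 485/535 nm, and IC50 was fitted by four-parameter logistic regression.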

Question: With COc1ccc(S(=O)(=O)N(CC(C)C)CC(O)C(Cc2ccc(NCc3nc(N(C4CCCCC4)C4CCCCC4)sc3-c3sc4c(c3C(=O)O)CC(C)(C)CC4)cc2)NC(=O)OC2COC3(C)OCCC23)cc1 (centres unmarked) [Compound I-760] as the molecule, how does the IC50 read?
Answer: 3.38 nM

Question: With COc1ccc(S(=O)(=O)N(CC(C)C)CC(O)C(Cc2ccc(N(C)Cc3nc(N(C4CCCCC4)C4CCCCC4)sc3-c3sc4c(c3C(=O)O)CC(C)(C)CC4)cc2)NC(=O)OC2COC3(C)OCCC23)cc1 (centres unmarked) [Compound I-761] as the molecule, how does the IC50 read?
Answer: 6.76 nM

Question: Which IC50 does the source give for COc1ccc(S(=O)(=O)N(CC(C)C)CC(O)C(Cc2ccc(N(C)Cc3cc(OC)ccc3C(=O)Nc3sc4c(c3C(=O)O)CC(C)(C)CC4)cc2)NC(=O)OC2COC3(C)OCCC23)cc1 (centres unmarked) [Compound I-762] here?
Answer: 6.23 nM

Question: For CCCCCCCCCCCCCC(=O)Nc1ccc(CNc2ccc(CC(NC(=O)OC3COC4(C)OCCC34)C(O)CN(CC(C)C)S(=O)(=O)c3ccc(OC)cc3)cc2)c(-c2sc3c(c2C(=O)O)CC(C)(C)CC3)c1 (centres unmarked) [Compound I-763], which IC50 is on record?
Answer: 3.07 nM

Question: Which IC50 does the source give for COc1ccc(S(=O)(=O)N(CC(C)C)CC(O)C(Cc2ccc(NCC3CC(C)(C)CCC3c3sc4c(c3C(=O)O)CC(C)(C)CC4)cc2)NC(=O)OC2COC3(C)OCCC23)cc1 (centres unmarked) [Compound I-764] here?
Answer: 2.81 nM

Question: Which IC50 does the source give for COc1ccc(S(=O)(=O)N(CC(C)C)CC(O)C(Cc2ccc(NCC3CC(C)(C)CCC3c3sc4c(c3C(=O)O)CC(C)(C)CC4)cc2)NC(=O)OC2COC3(C)OCCC23)cc1 (centres unmarked) [Compound I-765] here?
Answer: 2.96 nM

Question: For COc1ccc(S(=O)(=O)N(CC(C)C)CC(O)C(Cc2ccc(NCc3ccccc3-c3cnc(-c4sc5c(c4C(=O)O)CC(C)(C)CC5)s3)cc2)NC(=O)OC2COC3(C)OCCC23)cc1 (centres unmarked) [Compound I-766], which IC50 is on record?
Answer: 3.28 nM

Question: How did the IC50 turn out when COc1ccc(S(=O)(=O)N(CC(C)C)CC(O)C(Cc2ccc(N(C)Cc3cc4c(cc3-c3sc5c(c3C(=O)O)CC(C)(C)CC5)OCC(=O)N4C)cc2)NC(=O)OC2COC3(C)OCCC23)cc1 (centres unmarked) [Compound I-768] was run?
Answer: 2.95 nM

Question: With COc1ccc(S(=O)(=O)N(CC(C)C)CC(O)C(Cc2ccc(N(C)CC3CC(C)(C)CCC3c3sc4c(c3C(=O)O)CC(C)(C)CC4)cc2)NC(=O)OC2COC3(C)OCCC23)cc1 (centres unmarked) [Compound I-769] as the molecule, how does the IC50 read?
Answer: 5.98 nM

Question: Which IC50 does the source give for COc1ccc(S(=O)(=O)N(CC(C)C)CC(O)C(Cc2ccc(N(C)CC3CC(C)(C)CCC3c3sc4c(c3C(=O)O)CC(C)(C)CC4)cc2)NC(=O)OC2COC3(C)OCCC23)cc1 (centres unmarked) [Compound I-770] here?
Answer: 5.56 nM

Question: How did the IC50 turn out when COc1ccc(S(=O)(=O)N(CC(C)C)CC(O)C(Cc2ccc(N3Cc4nc5ccccc5cc4C3=O)cc2)NC(=O)OC2COC3(C)OCCC23)cc1 (centres unmarked) [Compound I-771] was run?
Answer: 2 nM

Question: For COc1ccc(S(=O)(=O)N(CC(C)C)CC(O)C(Cc2ccc(N(C)Cc3ccccc3-c3ccc(NC(=O)CC4CC(C)(C)CCC4=O)cc3)cc2)NC(=O)OC2COC3(C)OCCC23)cc1 (centres unmarked) [Compound I-772], which IC50 is on record?
Answer: 21 nM

Question: With COc1ccc(S(=O)(=O)N(CC(C)C)CC(O)C(Cc2ccc(NCc3nc4ccccc4cc3C(=O)Nc3sc4c(c3C(=O)O)CC(C)(C)CC4)cc2)NC(=O)OC2COC3(C)OCCC23)cc1 (centres unmarked) [Compound I-774] as the molecule, how does the IC50 read?
Answer: 6.26 nM

Question: COc1ccc(S(=O)(=O)N(CC(C)C)CC(O)C(Cc2ccc(NCc3ccccc3-c3ccc(Nc4sc5c(c4C(=O)O)CC(C)(C)CC5)nc3)cc2)NC(=O)OC2COC3(C)OCCC23)cc1 (centres unmarked) [Compound I-775] was tested. Which IC50 did it give?
Answer: 3.64 nM

Question: With COc1ccc(S(=O)(=O)N(CC(C)C)CC(O)C(Cc2ccc(N(C)Cc3ccccc3-c3ccc(Nc4sc5c(c4C(=O)O)CC(C)(C)CC5)nc3)cc2)NC(=O)OC2COC3(C)OCCC23)cc1 (centres unmarked) [Compound I-776] as the molecule, how does the IC50 read?
Answer: 6.4 nM

Question: How did the IC50 turn out when COc1ccc(S(=O)(=O)N(CC(C)C)CC(O)C(Cc2ccc(NCc3ccccc3NC(=O)Nc3sc4c(c3C(=O)O)CC(C)(C)CC4)cc2)NC(=O)OC2COC3(C)OCCC23)cc1 (centres unmarked) [Compound I-779] was run?
Answer: 2.74 nM

Question: How did the IC50 turn out when COc1ccc(S(=O)(=O)N(CC(C)C)CC(O)C(Cc2ccc(OCc3ccccc3-c3sc4c(c3C(=O)O)CC(C)(C)CC4)cc2)NC(=O)OC2COC3(COC(=O)NCc4ccc(F)cc4)OCCC23)cc1 (centres unmarked) [Compound I-784] was run?
Answer: 7.3 nM
